Data taken from US20050130134A1, “Means and methods for monitoring non-nucleoside reverse transcriptase inhibitor antiretroviral therapy and guiding therapeutic decisions in the treatment HIV-AIDS” (ViroLogic, Inc., priority 2000, published 2005).

Tests used:
[1] = system: RTV-268 patient virus (RT P236L with M41L, D67N, M184V, L210W, T215Y, K219Q); experiment: Phenotypic susceptibility assay, RTV-268 (patient 97-268); assay type: cell-based, HIV-1; details: RTV-268 patient virus compared to reference virus
Procedure: Resistance tests were carried out with resistance test vectors using two host cell types. Resistance test vector viral particles were produced by a first host cell (the resistance test vector host cell) that was prepared by transfecting a packaging host cell with the resistance test vector and the packaging expression vector. The resistance test vector viral particles were then used to infect a second host cell (the target host cell) in which the expression of the indicator gene is measured.
The resistance test vectors containing a functional luciferase gene cassette were constructed and host cells were transfected with the resistance test vector DNA. The resistant test vectors contained patient-derived reverse transcriptase and protease sequences that were either susceptible or resistant to the antiretroviral agents, such as nucleoside reverse transcriptase inhibitors, non-nucleoside reverse transcriptase inhibitors and protease inhibitors. The resistance test vector viral particles produced by transfecting the resistance test vector DNA into host cells, either in the presence or absence of protease inhibitors, were used to infect target host cells grown either in the absence of NRTI or NNRTI or in the presence of increasing concentrations of the drug. The amount of luciferase activity produced in infected target host cells in the presence of drug was compared to the amount of luciferase produced in infected target host cells in the absence of drug. Drug resistance was measured as the amount of drug required to inhibit by 50% the luciferase activity detected in the absence of drug (inhibitory concentration 50%, IC50). The IC50 values were determined by plotting percent drug inhibition vs. log10 drug concentration.
Host cells were seeded in 10-cm-diameter dishes and were transfected several days after plating with resistance test vector plasmid DNA and the envelope expression vector. Transfections were performed using a calcium-phosphate precipitation procedure. The cell culture media containing the DNA precipitate was replaced with fresh medium, from one to 24 hours, after transfection. Cell culture media containing resistance test vector viral particles was harvested one to four days after transfection and was passed through a […] filter before being stored at −80° C. HIV capsid protein (p24) levels in the harvested cell culture media were determined by an EIA method as described by the manufacturer (SIAC; Frederick, Md.). Before infection, target cells (293 and 293/T) were plated in cell culture media. Control infections were performed using cell culture media from mock transfections (no DNA) or transfections containing the resistance test vector plasmid DNA without the envelope expression plasmid. One to three or more days after infection the media was removed and cell lysis buffer (Promega) was added to each well. […] The inhibitory effect of the drug was determined using the following equation: % luciferase inhibition=1-(RLUluc[drug]÷RLUluc)×100 where RLUluc [drug] is the relative light unit of luciferase activity in infected cells in the presence of drug and RLUluc is the Relative Light Unit of luciferase activity in infected cells in the absence of drug. IC50 values were obtained from the sigmoidal curves that were generated from the data by plotting the percent inhibition of luciferase activity vs. the log10 drug concentration.
A resistance test vector was constructed as described in Example 1 from a patient sample designated 97-268. […] Isolation of viral RNA and RT/PCR was used to generate a patient derived segment that comprised viral sequences coding for all of PR and amino acids 1-313 of RT. The patient derived segment was inserted into a indicator gene viral vector to generate a resistance test vector designated RTV-268.

[2] = system: Tyr181Cys (Y181C) mutation of HIV RT; details: cited from earlier work
[3] = system: T66I integrase site-directed mutant; experiment: Phenotypic susceptibility assay, integrase T66I mutated resistance test vector; assay type: cell-based, HIV; details: T66I integrase mutant, FIG. 10
Procedure: Transfections were performed using a calcium-phosphate precipitation procedure. […] Cell lysates were assayed for luciferase activity (FIG. 3). […] The drug inhibition curves are shown in (FIG. 3).
A resistance test vector containing the threonine to isoleucine mutation at position 66 of the integrase protein (T66I) was constructed and tested using the phenotypic assay described earlier.

Nc1ccn([C@@H]2CS[C@H](CO)O2)c(=O)n1 [3TC]
change in susceptibility / resistance [1]: significant resistance

Cc1cn([C@H]2C[C@H](N=[N+]=[N-])[C@@H](CO)O2)c(=O)[nH]c1=O [AZT]
change in susceptibility / resistance [1]: significant resistance

CCc1cc(CCc2nc3ccccc3o2)c(=O)[nH]c1C [L-696,229]
change in susceptibility [2]: reduced susceptibility

CCc1cc(NCc2nc3c(Cl)ccc(Cl)c3o2)c(O)nc1C [L-697,661]
change in susceptibility [2]: reduced susceptibility

O=C(O)C(=O)CC(=O)c1cccn1Cc1ccc(F)cc1 [L-731,988]
reduction in susceptibility compared to wild type control RTV [3]: 4.7 fold

Cc1cn([C@H]2C=C[C@@H](CO)O2)c(=O)[nH]c1=O [d4T]
change in susceptibility / resistance [1]: slight shifts in susceptibility

Nc1ccn([C@H]2CC[C@@H](CO)O2)c(=O)n1 [ddC]
change in susceptibility / resistance [1]: slight shifts in susceptibility

O=c1[nH]cnc2c1ncn2[C@H]1CC[C@@H](CO)O1 [ddI]
change in susceptibility / resistance [1]: slight shifts in susceptibility
